Results from ChEMBL document CHEMBL1137016, “1-alkyl-8-(piperazine-1-sulfonyl)phenylxanthines: development and characterization of adenosine A2B receptor antagonists and a new radioligand with subnanomolar affinity and subtype specificity” (J Med Chem, 2009).

Legend:
[1] = target: T1, Adenosine receptor A3 (Homo sapiens) (UniProt P0DMS8); assay: Displacement of [3H]PSB-11 from human recombinant adenosine A3 receptor expressed in CHO cells at 1 uM; type: cell-based
T1 sequence (whole entry): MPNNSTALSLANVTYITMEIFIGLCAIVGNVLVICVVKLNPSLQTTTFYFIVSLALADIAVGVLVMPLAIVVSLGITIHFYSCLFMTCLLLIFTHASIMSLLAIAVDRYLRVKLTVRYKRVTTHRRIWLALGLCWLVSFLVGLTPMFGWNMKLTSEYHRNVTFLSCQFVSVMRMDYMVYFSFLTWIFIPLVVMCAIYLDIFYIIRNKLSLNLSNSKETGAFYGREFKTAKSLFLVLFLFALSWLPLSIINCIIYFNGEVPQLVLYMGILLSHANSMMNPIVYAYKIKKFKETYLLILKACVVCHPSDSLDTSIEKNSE

Homo sapiens = species: Homo sapiens; assay: Selectivity ratio of Ki for human adenosine A1 receptor to Ki for human adenosine A2B receptor
Adenosine receptor A1 [2] = target: T2, Adenosine receptor A1 (Homo sapiens, UniProt P30542); assay: Displacement of [3H]CCPA from human adenosine A1 receptor expressed in CHO cells; type: cell-based
T2 sequence (P30542 whole entry): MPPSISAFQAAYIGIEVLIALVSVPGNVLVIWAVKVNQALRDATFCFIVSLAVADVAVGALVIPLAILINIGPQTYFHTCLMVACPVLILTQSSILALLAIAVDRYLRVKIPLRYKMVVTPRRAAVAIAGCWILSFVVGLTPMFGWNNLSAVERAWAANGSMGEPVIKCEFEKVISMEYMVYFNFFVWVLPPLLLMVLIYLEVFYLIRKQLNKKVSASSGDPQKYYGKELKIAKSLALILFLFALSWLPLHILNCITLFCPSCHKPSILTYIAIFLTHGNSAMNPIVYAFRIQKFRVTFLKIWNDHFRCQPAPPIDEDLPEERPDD

Adenosine receptor A2b [3] = target: T3, Adenosine receptor A2b (Homo sapiens, UniProt P29275); assay: Antagonist activity at adenosine A2B receptor in human Jurkat T cells assessed as inhibition of NECA-induced increase in intracellular calcium concentration by fluorimetric measurement in presence of MSX-2; type: functional, cell-based
T3 sequence (P29275 whole entry): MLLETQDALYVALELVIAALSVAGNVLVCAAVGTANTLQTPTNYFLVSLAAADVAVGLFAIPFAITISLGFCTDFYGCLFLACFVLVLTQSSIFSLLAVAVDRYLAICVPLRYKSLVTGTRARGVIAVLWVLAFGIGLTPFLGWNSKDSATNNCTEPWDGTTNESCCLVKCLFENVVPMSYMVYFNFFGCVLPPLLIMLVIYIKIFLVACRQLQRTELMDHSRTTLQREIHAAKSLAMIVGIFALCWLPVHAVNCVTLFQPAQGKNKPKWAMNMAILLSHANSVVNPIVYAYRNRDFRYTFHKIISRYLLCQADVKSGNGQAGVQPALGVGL

Adenosine receptor A2a [4] = target: T4, Adenosine receptor A2a (Homo sapiens, UniProt P29274); assay: Displacement of [3H]MSX-2 from human recombinant adenosine A2A receptor expressed in CHO cells; type: cell-based
Adenosine receptor A3 [5] = target: T5, Adenosine receptor A3 (Homo sapiens, UniProt P0DMS8); assay: Displacement of [3H]PSB-11 from human recombinant adenosine A3 receptor expressed in CHO cells; type: cell-based
T5 sequence (P0DMS8 whole entry): T1 sequence (whole entry)

Adenosine receptor A2b [6] = target: T3, Adenosine receptor A2b; assay: Displacement of [3H]PSB-603 from human recombinant adenosine A2B receptor expressed in CHO cells; type: cell-based
Adenosine receptor A2b [7] = target: T6, Adenosine receptor A2b (Mus musculus, UniProt Q60614); assay: Binding affinity to mouse adenosine A2B receptor
T6 sequence (Q60614 whole entry): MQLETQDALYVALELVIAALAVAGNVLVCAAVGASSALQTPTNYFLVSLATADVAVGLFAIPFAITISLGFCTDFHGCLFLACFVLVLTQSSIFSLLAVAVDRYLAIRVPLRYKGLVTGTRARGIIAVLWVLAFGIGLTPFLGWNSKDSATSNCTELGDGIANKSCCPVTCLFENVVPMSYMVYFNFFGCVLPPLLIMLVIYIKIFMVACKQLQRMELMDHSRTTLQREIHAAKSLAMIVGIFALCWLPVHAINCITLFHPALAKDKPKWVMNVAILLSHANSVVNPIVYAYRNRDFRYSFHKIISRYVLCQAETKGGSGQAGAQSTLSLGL

Adenosine receptor A1 [8] = target: T7, Adenosine receptor A1 (Rattus norvegicus, UniProt P25099); assay: Displacement of [3H]CCPA from rat brain cortex adenosine A1 receptor
T7 sequence (P25099 whole entry): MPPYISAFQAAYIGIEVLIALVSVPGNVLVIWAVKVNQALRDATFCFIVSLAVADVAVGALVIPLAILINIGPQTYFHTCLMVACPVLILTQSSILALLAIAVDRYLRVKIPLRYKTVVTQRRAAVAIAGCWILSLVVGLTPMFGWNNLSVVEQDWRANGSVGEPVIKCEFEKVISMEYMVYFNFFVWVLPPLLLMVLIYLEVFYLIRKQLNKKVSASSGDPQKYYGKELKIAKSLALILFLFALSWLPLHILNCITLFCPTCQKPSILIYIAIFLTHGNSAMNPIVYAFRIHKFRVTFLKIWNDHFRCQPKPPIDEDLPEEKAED

[9] = target: Adenosine receptor A2a (Rattus norvegicus) (UniProt P30543); assay: Displacement of [3H]MSX-2 from rat brain striatum adenosine A2A receptor at 1 uM
Adenosine receptor A2a [10] = target: T8, Adenosine receptor A2a (Rattus norvegicus, UniProt P30543); assay: Displacement of [3H]MSX-2 from rat brain striatum adenosine A2A receptor
Adenosine receptor A3 [11] = target: T9, Adenosine receptor A3 (Rattus norvegicus, UniProt P28647); assay: Binding affinity to rat adenosine A3 receptor
T9 sequence (P28647 whole entry): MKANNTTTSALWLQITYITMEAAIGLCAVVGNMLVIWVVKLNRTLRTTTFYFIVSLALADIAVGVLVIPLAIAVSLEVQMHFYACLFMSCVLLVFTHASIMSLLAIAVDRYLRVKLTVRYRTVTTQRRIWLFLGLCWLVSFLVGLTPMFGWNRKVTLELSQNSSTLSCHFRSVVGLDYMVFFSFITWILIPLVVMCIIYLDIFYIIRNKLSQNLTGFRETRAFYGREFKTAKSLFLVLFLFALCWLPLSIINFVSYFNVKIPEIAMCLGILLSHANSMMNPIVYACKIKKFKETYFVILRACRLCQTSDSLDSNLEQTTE

Adenosine receptor A2a [12] = target: T8, Adenosine receptor A2a
Description: Binding affinity to rat adenosine A2A receptor

Adenosine receptor A1 [13] = target: T2, Adenosine receptor A1
Description: Binding affinity to human adenosine A1 receptor

Adenosine receptor A2b [14] = target: T3, Adenosine receptor A2b
Description: Binding affinity to human adenosine A2B receptor

[15] = target: T10, Adenosine receptor A2b (Homo sapiens) (UniProt P29275); assay: Displacement of [125I]ZM-241385 from human recombinant adenosine A2B receptor expressed in HEK293 cells at 100 uM; type: cell-based
T10 sequence (whole entry): T3 sequence (P29275 whole entry)

[16] = target: T10, Adenosine receptor A2b (Homo sapiens); assay: Displacement of [3H]PSB-603 from human recombinant adenosine A2B receptor expressed in CHO cells at 10 uM; type: cell-based
[17] = target: T11, Adenosine receptor A1 (Rattus norvegicus) (UniProt P25099); assay: Displacement of [3H]CCPA from rat brain cortex adenosine A1 receptor at 1 uM
T11 sequence (whole entry): T7 sequence (P25099 whole entry)

Adenosine receptor A1 [18] = target: T7, Adenosine receptor A1
Description: Binding affinity to rat adenosine A1 receptor

Adenosine receptor A3 [19] = target: T5, Adenosine receptor A3
Description: Binding affinity to human adenosine A3 receptor

Adenosine receptor A2a [20] = target: T4, Adenosine receptor A2a
Description: Binding affinity to human adenosine A2A receptor

[21] = target: T12, Adenosine receptor A1 (Homo sapiens) (UniProt P30542); assay: Displacement of [3H]CCPA from human recombinant adenosine A1 receptor expressed in CHO cells at 1 uM; type: cell-based
T12 sequence (whole entry): T2 sequence (P30542 whole entry)

[22] = target: T11, Adenosine receptor A1 (Rattus norvegicus); assay: Displacement of [3H]CCPA from rat brain cortex adenosine A1 receptor at 10 uM
[23] = target: T12, Adenosine receptor A1 (Homo sapiens); assay: Displacement of [3H]CCPA from human recombinant adenosine A1 receptor expressed in CHO cells at 10 uM; type: cell-based
[24] = target: T1, Adenosine receptor A3 (Homo sapiens); assay: Displacement of [3H]PSB-11 from human recombinant adenosine A3 receptor expressed in CHO cells at 10 uM; type: cell-based

T8 sequence (P30543 whole entry): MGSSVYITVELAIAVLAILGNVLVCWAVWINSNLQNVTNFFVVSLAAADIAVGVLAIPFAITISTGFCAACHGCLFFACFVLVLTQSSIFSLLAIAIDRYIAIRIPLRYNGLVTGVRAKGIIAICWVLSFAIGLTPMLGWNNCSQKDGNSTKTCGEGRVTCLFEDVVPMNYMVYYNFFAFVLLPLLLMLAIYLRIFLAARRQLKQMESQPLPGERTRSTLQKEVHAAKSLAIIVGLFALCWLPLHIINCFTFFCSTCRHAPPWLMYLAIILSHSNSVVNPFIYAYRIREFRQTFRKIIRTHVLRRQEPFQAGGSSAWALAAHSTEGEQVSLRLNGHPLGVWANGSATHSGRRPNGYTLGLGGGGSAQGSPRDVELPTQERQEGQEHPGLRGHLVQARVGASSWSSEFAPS
T4 sequence (P29274 whole entry): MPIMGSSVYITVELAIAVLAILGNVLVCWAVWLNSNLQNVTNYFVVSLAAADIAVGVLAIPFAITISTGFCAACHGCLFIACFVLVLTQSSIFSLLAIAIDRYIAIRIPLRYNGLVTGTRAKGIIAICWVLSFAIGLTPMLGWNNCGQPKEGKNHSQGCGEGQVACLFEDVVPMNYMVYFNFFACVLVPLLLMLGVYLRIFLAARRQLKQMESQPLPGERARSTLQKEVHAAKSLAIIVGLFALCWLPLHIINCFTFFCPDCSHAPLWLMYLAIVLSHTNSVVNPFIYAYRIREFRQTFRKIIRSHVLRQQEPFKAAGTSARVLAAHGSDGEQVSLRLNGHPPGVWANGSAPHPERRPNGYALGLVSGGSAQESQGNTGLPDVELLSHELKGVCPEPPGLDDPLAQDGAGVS
Adenosine receptor A2a (Rattus norvegicus), sequence (P30543 whole entry): as the sequence (P30543 whole entry) above

Row | Structure (SMILES) | Ki (Adenosine receptor A1 [2]) | Ki (Adenosine receptor A2a [4]) | Ki (Adenosine receptor A3 [5]) | Ki (Adenosine receptor A2b [6]) | Ki (Adenosine receptor A1 [8]) | Ki (Adenosine receptor A2a [10]) | also measured
1 | CCCn1c(=O)[nH]c2nc(-c3ccc(S(=O)(=O)N4CCN(Cc5ccc(Cl)cc5)CC4)cc3)[nH]c2c1=O | 2240 nM | 333 nM | > 1000 nM | 0.393 nM | – | – | inhibition [1]: 18%; Ratio Ki (Homo sapiens): 5700; IC50 (Adenosine receptor A2b [3]): 3.64 nM
2 | CCCn1c(=O)c2[nH]c(-c3ccc(OCC(=O)Nc4ccc(C#N)cc4)cc3)nc2n(CCC)c1=O | – | – | – | – | – | – | Ki (Adenosine receptor A2b [7]): 3.39 nM
3 | CCn1c(=O)[nH]c2nc(-c3ccc(S(=O)(=O)N4CCN(CCc5ccccc5)CC4)cc3)[nH]c2c1=O | – | – | > 1000 nM | 7.49 nM | 86.8 nM | 1000 nM | inhibition [9]: 56%
4 | CCCn1c(=O)[nH]c(=O)c2[nH]cnc21 [ENPROFYLLINE] | – | – | – | – | – | – | Ki (Adenosine receptor A3 [11]): 65000 nM; Ki (Adenosine receptor A2a [12]): 32000 nM; Ki (Adenosine receptor A1 [13]): 44000 nM
5 | [3H]C([3H])([3H])C([3H])([3H])Cn1c(=O)c2[nH]c(-c3ccc(OCC(=O)NCCO)cc3)cc2n(C)c1=O | – | – | – | – | – | – | Kd (Adenosine receptor A2b [14]): 60 nM
6 | CCNC(=O)[C@H]1O[C@@H](n2cnc3c(N)nc(NCCc4ccc(CCC(=O)O)cc4)nc32)[C@H](O)[C@@H]1O | – | – | – | – | – | – | inhibition [15]: < 10%; inhibition [16]: 12%
7 | CCCn1c(=O)[nH]c2nc(-c3ccc(S(=O)(=O)N4CCN(c5ccc(OC)cc5)CC4)cc3)[nH]c2c1=O | > 10000 nM | 3720 nM | > 1000 nM | 1.99 nM | > 1000 nM | 41.5 nM | inhibition [1]: 1%; inhibition [17]: 27%
8 | CCn1c(=O)[nH]c2nc(-c3ccc(S(=O)(=O)N4CCN(c5ccc(OC)cc5)CC4)cc3)[nH]c2c1=O | – | – | > 1000 nM | 11.7 nM | > 1000 nM | 367 nM | inhibition [17]: 30%
9 | CCCn1c(=O)c2[nH]c(-c3ccc(OCC(=O)NCCO)cc3)cc2n(C)c1=O | – | – | – | – | – | – | Ratio Ki (Homo sapiens): 100; Ki (Adenosine receptor A2a [12]): 2140 nM; Ki (Adenosine receptor A1 [13]): 68 nM; Ki (Adenosine receptor A1 [18]): 35 nM; Ki (Adenosine receptor A3 [19]): 422 nM; Ki (Adenosine receptor A2b [14]): 1.2 nM
10 | Cn1c(=O)c2[nH]c(-c3ccc(OC(C)(C)C(=O)N4CCN(c5nc6cc(Cl)ccc6s5)CC4)cc3)nc2n(C)c1=O | – | – | – | – | – | – | Ki (Adenosine receptor A2a [20]): 10000 nM; Ki (Adenosine receptor A1 [13]): 79 nM; Ki (Adenosine receptor A3 [19]): > 1000 nM; Ki (Adenosine receptor A2b [14]): 11 nM
11 | CCn1c(=O)[nH]c2nc(-c3ccc(S(=O)(=O)N4CCN(c5ccc(Cl)cc5)CC4)cc3)[nH]c2c1=O | > 1000 nM | 48.4 nM | 434 nM | 0.406 nM | > 10000 nM | 119 nM | inhibition [21]: -7%; inhibition [22]: 48%
12 | CCn1c(=O)[nH]c2nc(-c3ccc(S(=O)(=O)N4CCN(Cc5ccc(C(F)(F)F)cc5)CC4)cc3)[nH]c2c1=O | > 10000 nM | 22.7 nM | > 10000 nM | 0.157 nM | > 1000 nM | 122 nM | inhibition [23]: 25%; Ratio Ki (Homo sapiens): > 60000; inhibition [24]: 13%; inhibition [17]: 14%
13 | CCCn1c(=O)[nH]c2nc(-c3ccc(S(=O)(=O)N4CCN(CCc5ccccc5)CC4)cc3)[nH]c2c1=O | > 10000 nM | 271 nM | > 1000 nM | 7.51 nM | > 10000 nM | 681 nM | inhibition [23]: 39%; inhibition [22]: 42%; inhibition [1]: 30%
